Target: T1, SARM1 (50-724) (Homo sapiens, UniProt Q6SZW1)
T1 sequence (Q6SZW1 50-724): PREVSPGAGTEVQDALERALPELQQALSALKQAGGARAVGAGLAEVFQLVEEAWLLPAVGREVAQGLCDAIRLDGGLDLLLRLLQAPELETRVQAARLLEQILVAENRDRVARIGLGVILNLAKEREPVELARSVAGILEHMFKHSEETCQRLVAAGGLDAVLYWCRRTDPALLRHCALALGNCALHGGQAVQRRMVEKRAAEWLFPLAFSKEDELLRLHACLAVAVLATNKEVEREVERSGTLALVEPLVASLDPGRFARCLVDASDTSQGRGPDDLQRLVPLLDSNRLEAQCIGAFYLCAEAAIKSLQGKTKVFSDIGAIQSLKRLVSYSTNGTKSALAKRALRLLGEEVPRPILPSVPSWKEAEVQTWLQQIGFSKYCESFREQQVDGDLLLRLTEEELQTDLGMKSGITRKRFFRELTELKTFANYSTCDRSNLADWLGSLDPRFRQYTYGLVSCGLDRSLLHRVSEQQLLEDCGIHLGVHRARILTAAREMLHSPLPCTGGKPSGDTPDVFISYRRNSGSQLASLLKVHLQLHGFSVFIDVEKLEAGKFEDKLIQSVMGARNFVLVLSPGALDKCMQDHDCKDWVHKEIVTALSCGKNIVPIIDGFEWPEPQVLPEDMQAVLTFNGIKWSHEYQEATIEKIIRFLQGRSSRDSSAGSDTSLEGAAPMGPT
Experiment: biochemical
Description: An enzymatic assay was performed in a 384-well plate using Dulbecco's phosphate-buffered saline (PBS) as the reaction buffer. […] The reaction was initiated by adding a mixture of 200 μM nicotinamide mononucleotide (NMN) as activator and 100 μM NAD^+ as substrate. After 1 h of incubation at room temperature, the reaction was terminated with 10 times volume of 70% acetonitrile, then centrifuged at 3800 rpm for 10 min.

IC50 [nM] | Compound
< 100 | Cc1n[nH]c(=O)c2nc(NC(C)c3c(Cl)ccc(F)c3Cl)ccc12 (racemic) [Compound 314, 2-((1-(2,6-dichloro-3-fluorophenyl)ethyl)amino)-5-methylpyrido[2,3-d]pyridazin-8(7H)-one]
< 100 | CC(Nc1ccc2ccn(CC(N)=O)c(=O)c2c1)c1nn(C)c(C2CC2)c1Cl (racemic) [Compound 315, 2-(7-((1-(4-chloro-5-cyclopropyl-1-methyl-1H-pyrazol-3-yl)ethyl)amino)-1-oxoisoquinolin-2(1H)-yl)acetamide]
< 100 | Cc1n[nH]c(=O)c2cc(NC(C)c3nn(C)c(Cl)c3Cl)cc(F)c12 (racemic) [Compound 316, 7-((1-(4,5-dichloro-1-methyl-1H-pyrazol-3-yl)ethyl)amino)-5-fluoro-4-methylphthalazin-1(2H)-one]
< 100 | CC(Nc1ccc2c(c1)N(C(=O)CC(N)=O)CC2(C)C)c1sc(Cl)nc1Cl (racemic) [Compound 317, 3-(6-((1-(2,4-dichlorothiazol-5-yl)ethyl)amino)-3,3-dimethylindolin-1-yl)-3-oxopropanamide]
< 100 | CC(Nc1cc(F)c2c(c1)C(=O)NC2(C)C)c1nc(Cl)c(Cl)s1 (racemic) [Compound 318, 6-((1-(4,5-dichlorothiazol-2-yl)ethyl)amino)-4-fluoro-3,3-dimethylisoindolin-1-one]
< 100 | CC(Nc1ccc2cc[nH]c(=O)c2c1)c1nn(C2CC2)c(Cl)c1Cl (racemic) [Compound 321, 7-((1-(4,5-dichloro-1-cyclopropyl-1H-pyrazol-3-yl)ethyl)amino)isoquinolin-1(2H)-one]
< 100 | Cc1cn(CC(N)=O)c(=O)c2nc(NC(C)c3nn(C)c(Cl)c3Cl)ccc12 (racemic) [Compound 324, 2-(2-((1-(4,5-dichloro-1-methyl-1H-pyrazol-3-yl)ethyl)amino)-5-methyl-8-oxo-1,7-naphthyridin-7(8H)-yl)acetamide]
< 100 | CC(Nc1ccc2cc[nH]c(=O)c2c1)c1nn(C)c(C(F)F)c1Cl (racemic) [Compound 325, 7-((1-(4-chloro-5-(difluoromethyl)-1-methyl-1H-pyazol-3-yl)ethyl)amino)isoquinolin-1(2H)-one]
< 100 | Cc1c2ccc(NC(C)c3nc(Cl)c(Cl)s3)cc2nn1C1CCOCC1 (racemic) [Compound 327, N-(1-(4,5-dichlorothiazol-2-yl)ethyl)-3-methyl-2-(tetrahydro-2H-pyran-4-yl)-2H-indazol-6-amine]
< 100 | CC(Nc1cc(F)c2c(c1)C(=O)N(CC(N)=O)C2(C)C)c1nc(Cl)c(Cl)s1 (racemic) [Compound 328, 2-(5-((1-(4,5-dichlorothiazol-2-yl)ethyl)amino)-7-fluoro-1,1-dimethyl-3-oxoisoindolin-2-yl)acetamide]
< 100 | CC1N(C(=O)CC(N)=O)c2cc(NS(=O)(=O)c3cccc(Cl)c3Cl)ccc2C1(C)C (racemic) [Compound 329, 3-(6-((2,3-dichlorophenyl)sulfonamido)-2,3,3-trimethylindolin-1-yl)-3-oxopropanamide]
< 100 | Cc1nn(CC(N)=O)c(=O)c2nc(NC(C)c3nn(C)c(Cl)c3Cl)ccc12 (racemic) [Compound 330, 2-(2-((1-(4,5-dichloro-1-methyl-1H-pyrazol-3-yl)ethyl)amino)-5-methyl-8-oxopyrido[2,3-d]pyridazin-7(8H)-yl)acetamide]
< 100 | Cc1nn(C(=O)c2ccncc2)c2cc(NC(C)c3nc(Cl)c(Cl)s3)ccc12 (racemic) [Compound 331, (6-((1-(4,5-dichlorothiazol-2-yl)ethyl)amino)-3-methyl-1H-indazol-1-yl)(pyridin-4-yl)methanone]
< 100 | Cc1nn(CC(N)=O)c2cc(NC(C)c3nc(Cl)c(Cl)s3)cc(F)c12 (racemic) [Compound 337, 2-(6-((1-(4,5-dichlorothiazol-2-yl)ethyl)amino)-4-fluoro-3-methyl-1H-indazol-1-yl)acetamide]
< 100 | CC(Nc1cc(F)c2nc[nH]c(=O)c2c1)c1nsc(Cl)c1Cl (racemic) [Compound 338, 6-((1-(4,5-dichloroisothiazol-3-yl)ethyl)amino)-8-fluoroquinazolin-4(3H)-one]
< 100 | Cc1c2ccc(NC(C)c3snc(Cl)c3Cl)cc2nn1CC(N)=O (racemic) [Compound 341, 2-(6-((1-(3,4-dichloroisothiazol-5-yl)ethyl)amino)-3-methyl-2H-indazol-2-yl)acetamide]
< 100 | Cc1n[nH]c(=O)c2cc(NC(C)c3scc(Cl)c3Cl)ccc12 (racemic) [Compound 342, 7-((1-(3,4-dichlorothiophen-2-yl)ethyl)amino)-4-methylphthalazin-1(2H)-one]

IC50 [nM] | Compound
< 100 | Cc1nc(C(C)Nc2ccc3c(C)n(CC(N)=O)nc3c2)sc1Cl (racemic) [Compound 343, 2-(6-((1-(5-chloro-4-methylthiazol-2-yl)ethyl)amino)-3-methyl-2H-indazol-2-yl)acetamide]
< 100 | CC(Nc1nc2ccccc2s1)c1nc(Cl)c(Cl)s1 (racemic) [Compound 344, N-(1-(4,5-dichlorothiazol-2-yl)ethyl)benzo[d]thiazol-2-amine]
< 100 | CC(Nc1ccc2snc(C(N)=O)c2c1)c1nc(Cl)c(Cl)s1 (racemic) [Compound 345, 5-[1-(4,5-dichlorothiazol-2-yl)ethylamino]-1,2-benzothiazole-3-carboxamide]
< 100 | CC(Nc1ccc2snc(C(=O)N3CC(O)C3)c2c1)c1nc(Cl)c(Cl)s1 (racemic) [Compound 346, (5-((1-(4,5-dichlorothiazol-2-yl)ethyl)amino)benzo[d]isothiazol-3-yl)(3-hydroxyazetidin-1-yl)methanone]
< 100 | CC(Nc1ccc2nc[nH]c(=O)c2n1)c1c(F)ccc(Cl)c1Cl (racemic) [Compound 349, 6-((1-(2,3-dichloro-6-fluorophenyl)ethyl)amino)pyrido[3,2-d]pyrimidin-4(3H)-one]
100 to 500 | Cc1c(C#N)sc(C(C)Nc2ccc3c(C)n[nH]c(=O)c3c2)c1Cl (racemic) [Compound 350, 4-chloro-3-methyl-5-(1-((1-methyl-4-oxo-3,4-dihydrophthalazin-6-yl)amino)ethyl)thiophene-2-carbonitrile]
< 100 | CC(Nc1cc(F)c2ncn(CC(N)=O)c(=O)c2c1)c1ccc(F)c(Cl)c1Cl (racemic) [Compound 351, 2-(6-((1-(2,3-dichloro-4-fluorophenyl)ethyl)amino)-8-fluoro-4-oxoquinazolin-3(4H)-yl)acetamide]
< 100 | CC(Nc1cc(F)c2nc[nH]c(=O)c2c1)c1nccc(Cl)c1Cl (racemic) [Compound 352, 6-((1-(3,4-dichloropyridin-2-yl)ethyl)amino)-8-fluoroquinazolin-4(3H)-one]
< 100 | CC(Nc1ccc2cc[nH]c(=O)c2c1)c1csc(Cl)c1Cl (racemic) [Compound 353, 7-((1-(4,5-dichlorothiophen-3-yl)ethyl)amino)isoquinolin-1(2H)-one]
< 100 | CC(Nc1cc(F)c2nc[nH]c(=O)c2c1)c1cncc(Cl)c1Cl (racemic) [Compound 354, 6-((1-(4,5-dichloropyridin-3-yl)ethyl)amino)-8-fluoroquinazolin-4(3H)-one]
< 100 | CC(Nc1ccc2c(C(F)F)n(CC(N)=O)nc2c1)c1nc(Cl)c(Cl)s1 (racemic) [Compound 355, 2-(6-((1-(4,5-dichlorothiazol-2-yl)ethyl)amino)-3-(difluoromethyl)-2H-indazol-2-yl)acetamide]
< 100 | CC(Nc1ccc2c(Cl)n(CC(N)=O)nc2c1)c1nc(Cl)c(Cl)s1 (racemic) [Compound 361, 2-(3-chloro-6-((1-(4,5-dichlorothiazol-2-yl)ethyl)amino)-2H-indazol-2-yl)acetamide]
< 100 | Cc1c2c(F)cc(NC(C)c3c(F)ccc(Cl)c3Cl)cc2nn1CC(N)=O (racemic) [Compound 364, 2-(6-((1-(2,3-dichloro-6-fluorophenyl)ethyl)amino)-4-fluoro-3-methyl-2H-indazol-2-yl)acetamide]
< 100 | CC(Nc1ccc2c(C(F)F)n(CC(N)=O)nc2c1)c1c(F)ccc(Cl)c1Cl (racemic) [Compound 365, 2-(6-((1-(2,3-dichloro-6-fluorophenyl)ethyl)amino)-3-(difluoromethyl)-2H-indazol-2-yl)acetamide]
< 100 | CC(Nc1ccc2c(C(F)(F)F)n(CC(N)=O)nc2c1)c1nc(Cl)c(Cl)s1 (racemic) [Compound 366, 2-(6-((1-(4,5-dichlorothiazol-2-yl)ethyl)amino)-3-(trifluoromethyl)-2H-indazol-2-yl)acetamide]
< 100 | [2H]C(C)(Nc1ccc2c(C)n(CC(N)=O)nc2c1)c1nc(Cl)c(Cl)s1 (racemic) [Compound 376, 2-(6-((1-(4,5-dichlorothiazol-2-yl)ethyl-1-d)amino)-3-methyl-2H-indazol-2-yl)acetamide]
< 100 | Cc1sc(C(C)Nc2ccc3c(C)n(CC(N)=O)nc3c2)nc1Cl (racemic) [Compound 379, 2-(6-((1-(4-chloro-5-methylthiazol-2-yl)ethyl)amino)-3-methyl-2H-indazol-2-yl)acetamide]

Source: patent publication US20250320184A1 (SIRONAX LTD., priority 2022, published 2025)
